The values that follow come from patent US20250368666A1, “INDAZOLE COMPOUNDS” (TYRA BIOSCIENCES, INC., priority 2022, published 2025).

In general, Kd refers to the free concentration of one partner at which half of the binding sites on the other are occupied at equilibrium, for simple one-to-one binding.

Test in all cases: Kinase binding assay (kinase-tagged T7 phage, affinity beads, qPCR), Kd
The target of one test is T1, FGFR1 (Homo sapiens, UniProt P11362).
T1 construct: made in house; host or cells: E. coli (BL21-derived), T7 phage
T1 sequence (P11362 22-822): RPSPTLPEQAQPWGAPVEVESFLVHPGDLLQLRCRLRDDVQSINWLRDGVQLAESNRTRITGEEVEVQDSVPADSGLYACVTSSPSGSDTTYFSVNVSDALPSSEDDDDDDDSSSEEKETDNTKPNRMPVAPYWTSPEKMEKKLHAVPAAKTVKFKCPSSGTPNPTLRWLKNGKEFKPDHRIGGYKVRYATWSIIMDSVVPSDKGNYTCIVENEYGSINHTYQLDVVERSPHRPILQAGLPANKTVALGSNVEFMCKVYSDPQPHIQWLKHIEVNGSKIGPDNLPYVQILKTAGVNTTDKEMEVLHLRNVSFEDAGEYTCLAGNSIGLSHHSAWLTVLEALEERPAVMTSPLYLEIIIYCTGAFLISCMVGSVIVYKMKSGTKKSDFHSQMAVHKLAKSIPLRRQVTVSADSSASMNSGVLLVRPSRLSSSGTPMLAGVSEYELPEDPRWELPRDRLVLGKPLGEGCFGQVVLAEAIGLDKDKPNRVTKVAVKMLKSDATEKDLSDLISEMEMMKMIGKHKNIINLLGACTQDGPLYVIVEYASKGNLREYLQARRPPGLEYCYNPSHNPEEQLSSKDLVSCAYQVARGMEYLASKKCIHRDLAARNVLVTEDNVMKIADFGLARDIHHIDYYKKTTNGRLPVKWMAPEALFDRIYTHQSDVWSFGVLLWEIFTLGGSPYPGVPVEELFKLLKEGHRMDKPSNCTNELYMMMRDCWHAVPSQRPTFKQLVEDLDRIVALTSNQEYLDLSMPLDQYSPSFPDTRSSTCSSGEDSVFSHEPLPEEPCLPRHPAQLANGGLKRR
The following applies: read-out: FGFR1 (Kd nM). In short, it runs like this:
(§1)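 Readout was qPCR of kinase eluted from ligand-coated affinity beads after competition with test compound. Kinases were expressed as T7 phage fusions in E. coli. Binding constants were derived by non-linear least-squares Hill fitting, Hill slope −1.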

For a further test, the target named is T2, FGFR4 (Homo sapiens, UniProt P22455).
T2 construct: made in house; host or cells: E. coli (BL21-derived), T7 phage
T2 sequence (P22455 22-802): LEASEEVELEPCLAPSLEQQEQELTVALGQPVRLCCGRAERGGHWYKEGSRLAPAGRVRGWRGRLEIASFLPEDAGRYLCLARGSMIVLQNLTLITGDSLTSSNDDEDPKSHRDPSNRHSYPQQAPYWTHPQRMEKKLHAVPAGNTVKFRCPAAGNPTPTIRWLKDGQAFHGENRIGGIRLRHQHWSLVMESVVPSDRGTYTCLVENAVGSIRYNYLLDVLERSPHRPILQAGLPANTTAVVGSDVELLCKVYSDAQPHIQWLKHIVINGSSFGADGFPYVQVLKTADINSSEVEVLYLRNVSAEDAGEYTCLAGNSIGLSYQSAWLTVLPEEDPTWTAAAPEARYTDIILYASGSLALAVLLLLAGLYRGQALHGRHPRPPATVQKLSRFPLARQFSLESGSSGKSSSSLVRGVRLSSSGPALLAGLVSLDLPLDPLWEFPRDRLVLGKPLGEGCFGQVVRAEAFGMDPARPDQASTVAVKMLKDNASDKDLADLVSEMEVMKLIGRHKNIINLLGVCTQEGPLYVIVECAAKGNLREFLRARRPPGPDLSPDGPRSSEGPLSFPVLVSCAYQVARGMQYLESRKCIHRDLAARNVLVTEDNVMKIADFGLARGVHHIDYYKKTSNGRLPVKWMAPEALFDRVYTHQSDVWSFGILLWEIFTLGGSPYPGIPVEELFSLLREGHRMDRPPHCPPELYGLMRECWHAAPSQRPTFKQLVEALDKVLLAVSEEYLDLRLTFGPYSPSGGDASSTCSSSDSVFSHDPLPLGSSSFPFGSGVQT
As to conditions: read-out: FGFR4 (Kd nM). The essentials:
as §1

The target of a further test is T3, FGFR3 (V555M) (Homo sapiens, UniProt P22607, V555M).
T3 construct: made in house; host or cells: E. coli (BL21-derived), T7 phage
T3 sequence (P22607 23-806 V555M): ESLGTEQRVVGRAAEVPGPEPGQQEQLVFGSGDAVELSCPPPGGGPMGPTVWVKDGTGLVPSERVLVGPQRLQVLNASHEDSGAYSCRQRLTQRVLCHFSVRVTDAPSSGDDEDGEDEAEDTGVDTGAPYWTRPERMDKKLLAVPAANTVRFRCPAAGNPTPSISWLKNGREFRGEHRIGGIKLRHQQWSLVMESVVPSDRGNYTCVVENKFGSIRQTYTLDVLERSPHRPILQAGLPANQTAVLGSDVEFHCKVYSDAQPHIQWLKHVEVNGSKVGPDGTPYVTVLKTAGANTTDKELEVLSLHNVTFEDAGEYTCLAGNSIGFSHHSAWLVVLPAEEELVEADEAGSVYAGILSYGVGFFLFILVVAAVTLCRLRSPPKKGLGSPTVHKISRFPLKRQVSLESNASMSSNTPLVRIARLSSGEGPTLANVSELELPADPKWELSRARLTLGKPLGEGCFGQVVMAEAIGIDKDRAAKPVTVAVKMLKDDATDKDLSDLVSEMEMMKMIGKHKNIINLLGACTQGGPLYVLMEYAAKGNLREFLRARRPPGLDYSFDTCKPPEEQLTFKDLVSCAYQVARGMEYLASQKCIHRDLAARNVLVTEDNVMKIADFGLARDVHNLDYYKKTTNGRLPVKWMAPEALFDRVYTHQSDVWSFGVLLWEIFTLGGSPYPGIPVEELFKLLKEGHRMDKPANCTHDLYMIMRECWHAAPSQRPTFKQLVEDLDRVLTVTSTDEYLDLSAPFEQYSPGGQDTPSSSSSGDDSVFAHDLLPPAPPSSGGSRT
As to conditions: V555M mutant; read-out: FGFR3 (V555M) (Kd nM). The essentials:
as §1

Another test concerns the target T4, FGFR3 (Homo sapiens, UniProt P22607).
T4 construct: made in house; host or cells: E. coli (BL21-derived), T7 phage
As to conditions: read-out: FGFR3 (Kd nM). The essentials: as §1

The target in the next test is T5, FGFR2 (Homo sapiens, UniProt P21802).
T5 construct: made in house; host or cells: E. coli (BL21-derived), T7 phage
T5 sequence (P21802 22-821): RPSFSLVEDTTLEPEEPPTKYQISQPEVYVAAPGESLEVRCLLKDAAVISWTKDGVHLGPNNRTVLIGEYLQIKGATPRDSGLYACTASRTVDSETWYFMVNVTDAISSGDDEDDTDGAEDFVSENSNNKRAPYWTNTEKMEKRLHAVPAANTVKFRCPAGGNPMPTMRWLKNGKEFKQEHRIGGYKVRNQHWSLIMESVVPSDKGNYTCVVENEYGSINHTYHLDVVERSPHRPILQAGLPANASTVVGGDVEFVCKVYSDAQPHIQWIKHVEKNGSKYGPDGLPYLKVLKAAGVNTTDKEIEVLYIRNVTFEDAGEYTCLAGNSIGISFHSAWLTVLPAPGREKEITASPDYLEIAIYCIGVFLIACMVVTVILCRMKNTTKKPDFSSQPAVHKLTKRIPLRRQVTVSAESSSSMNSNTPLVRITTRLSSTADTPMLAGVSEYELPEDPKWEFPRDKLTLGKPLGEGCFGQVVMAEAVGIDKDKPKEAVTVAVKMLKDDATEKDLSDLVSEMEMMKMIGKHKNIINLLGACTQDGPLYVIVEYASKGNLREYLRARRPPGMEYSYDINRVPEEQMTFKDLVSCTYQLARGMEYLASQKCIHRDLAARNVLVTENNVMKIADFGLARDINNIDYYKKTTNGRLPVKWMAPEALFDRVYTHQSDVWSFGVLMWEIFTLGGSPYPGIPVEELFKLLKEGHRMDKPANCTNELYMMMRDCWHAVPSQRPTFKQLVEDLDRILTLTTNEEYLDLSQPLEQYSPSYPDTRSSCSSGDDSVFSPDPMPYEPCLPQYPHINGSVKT
As to conditions: read-out: FGFR2 (Kd nM). In short, it runs like this:
as §1

T4 sequence (P22607 23-806): as the sequence (P22607 23-806 V555M) above, with M533V counted along it

Turning to `CCNC1(C)CN(c2ccc(-c3n[nH]c4ccc(O[C@H](C)c5c(Cl)cncc5Cl)cc34)cn2)C1` [Example 239, 1-[5-[5-[(1R)-1-(3,5-dichloro-4-pyridyl)ethoxy]-1H-indazol-3-yl]-2-pyridyl]-N-ethyl-3-methyl-azetidin-3-amine], the Kd on FGFR1, at FGFR4, at FGFR3 (V555M), at FGFR3 and at FGFR2 was 1 to 50 nM in each case.

With `C[C@H](Oc1ccc2[nH]nc(-c3cnc(N4C[C@H](CS(C)(=O)=O)[C@H]4C)c(F)c3)c2c1)c1c(Cl)cncc1Cl` [Example 208, 5-((S)-1-(3,5-dichloropyridin-4-yl)ethoxy)-3-(5-fluoro-6-((2R,3S)-2-methyl-3-((meth-ylsulfonyl)meth-yl)azetidin-1-yl)pyridin-3-yl)-1H-indazole], the Kd on FGFR1 was more than 1000 nM; at FGFR4, 300 to 1000 nM; on FGFR3 (V555M) it was 50 to 300 nM; on FGFR3, 50 to 300 nM; at FGFR2, more than 1000 nM.

Take `C[C@@H](Oc1ccc2[nH]nc(-c3cnc(N4CC(C)(NCC5CC5)C4)nc3)c2c1)c1c(Cl)cncc1Cl` [Example 235, (R)-N-(cyclo-propylmethyl)-1-(5-(5-(1-(3,5-dichloropyridin-4-yl)ethoxy)-1H-indazol-3-yl)pyrimidin-2-yl)-3-methylazetidin-3-amine]: the Kd at FGFR1, on FGFR4, at FGFR3 (V555M), on FGFR3 and at FGFR2 was 1 to 50 nM each time.

Consider `COc1cc2[nH]nc(-c3cnc(N4CC(C)(CS(C)(=O)=O)C4)c(F)c3)c2cc1O[C@H](C)c1c(Cl)cncc1Cl` [Example 194, (R)-5-(1-(3,5-dichloropyridin-4-yl)ethoxy)-3-(5-fluoro-6-(3-methyl-3-((methyl-sulfonyl)meth-yl)azetidin-1-yl)pyridin-3-yl)-6-methoxy-1H-indazole], for which the Kd at FGFR1, on FGFR4, on FGFR3 (V555M), at FGFR3 and on FGFR2 was 1 to 50 nM in each case.

Consider `COCCN(C)C1(C)CN(c2ncc(-c3n[nH]c4ccc(O[C@H](C)c5c(Cl)cncc5Cl)cc34)cc2F)C1` [Example 85, (R)-1-(5-(5-(1-(3,5-dichloropyridin-4-yl)ethoxy)-1H-indazol-3-yl)-3-fluoropyridin-2-yl)-N-(2-methoxyethyl)-N,3-dimethylazetidin-3-amine], for which the Kd at FGFR1, at FGFR4, on FGFR3 (V555M), at FGFR3 and at FGFR2 was 1 to 50 nM each time.

Consider `C[C@@H](Oc1ccc2[nH]nc(-c3cnc(N4CC(C)(N5CCCC5)C4)c(F)c3)c2c1F)c1c(Cl)cncc1Cl` [Example 168, (R)-5-(1-(3,5-dichloropyridin-4-yl)ethoxy)-4-fluoro-3-(5-fluoro-6-(3-methyl-3-(pyrrolidin-1-yl)azetidin-1-yl)pyridin-3-yl)-1H-indazole], for which the Kd fell in the range of 50 to 300 nM on FGFR1; 50 to 300 nM at FGFR4; 1 to 50 nM on FGFR3 (V555M); 1 to 50 nM at FGFR3; 50 to 300 nM on FGFR2.

For the compound `CC(C)NCC1(C)CN(c2ccc(-c3n[nH]c4cc(F)c(O[C@H](C)c5c(Cl)cncc5Cl)cc34)cn2)C1` [Example 189, (R)-N-((1-(5-(5-(1-(3,5-dichloro-pyridin-4-yl)ethoxy)-6-fluoro-1H-indazol-3-yl)pyridin-2-yl)-3-methylazetidin-3-yl)methyl)propan-2-amine], the Kd at FGFR1, on FGFR4, at FGFR3 (V555M), at FGFR3 and on FGFR2 was 1 to 50 nM in each case.

Take `C[C@@H](Oc1ccc2[nH]nc(-c3ccc(N4CC(C)(CP(C)(C)=O)C4)nc3)c2c1F)c1c(Cl)cncc1Cl` [Example 187, (R)-((1-(5-(5-(1-(3,5-dichloro-pyridin-4-yl)ethoxy)-4-fluoro-1H-indazol-3-yl)pyridin-2-yl)-3-methylazetidin-3-yl)methyl)dimethyl-phosphine oxide]: the Kd is more than 1000 nM on FGFR1; 300 to 1000 nM at FGFR4; 50 to 300 nM at FGFR3 (V555M); 50 to 300 nM on FGFR3; 300 to 1000 nM on FGFR2.

As for `C[C@@H](Oc1ccc2[nH]nc(-c3cnc(N4CC(C)(C(=O)NCCO)C4)c(F)c3)c2c1)c1c(Cl)cncc1Cl` [Example 162, 1-[5-[5-[(1R)-1-(3,5-dichloro-4-pyridyl)ethoxy]-1H-indazol-3-yl]-3-fluoro-2-pyridyl]-N-(2-hydroxyethyl)-3-methyl-azetidine-3-carboxamide], the Kd on FGFR1, at FGFR4, on FGFR3 (V555M), at FGFR3 and on FGFR2 was 1 to 50 nM throughout.

Regarding `C[C@@H](Oc1ccc2[nH]nc(-c3cnc(N4CC(C)(NCCO)C4)c(F)c3)c2c1F)c1c(Cl)cncc1Cl` [Example 175, (R)-2-((1-(5-(5-(1-(3,5-dichloro-pyridin-4-yl)ethoxy)-4-fluoro-1H-indazol-3-yl)-3-fluoropyridin-2-yl)-3-methylazetidin-3-yl)amino)ethan-1-ol], the Kd at FGFR1 is more than 1000 nM; on FGFR4 it was 50 to 300 nM; on FGFR3 (V555M), 50 to 300 nM; at FGFR3 it was 50 to 300 nM; at FGFR2, more than 1000 nM.

In the case of `C[C@@H](Oc1ccc2[nH]nc(-c3ccc(N4CC(C)(CN5CCCC5)C4)nc3)c2c1F)c1c(Cl)cncc1Cl` [Example 191, (R)-5-(1-(3,5-dichloropyridin-4-yl)ethoxy)-4-fluoro-3-(6-(3-methyl-3-(pyrrolidin-1-ylmethyl)azetidin-1-yl)pyridin-3-yl)-1H-indazole], the Kd on FGFR1 fell in the range of 300 to 1000 nM; on FGFR4 it was 300 to 1000 nM; on FGFR3 (V555M), 1 to 50 nM; at FGFR3, 50 to 300 nM; at FGFR2, 300 to 1000 nM.

For the compound `C[C@@H](O)CNC1(C)CN(c2ncc(-c3n[nH]c4ccc(O[C@H](C)c5c(Cl)cncc5Cl)c(F)c34)cc2F)C1` [Example 169, (R)-1-((1-(5-(5-((R)-1-(3,5-dichloropyridin-4-yl)ethoxy)-4-fluoro-1H-indazol-3-yl)-3-fluoropyridin-2-yl)-3-methylazetidin-3-yl)amino)propan-2-ol], the Kd was 300 to 1000 nM at FGFR1; 50 to 300 nM at FGFR4; 1 to 50 nM on FGFR3 (V555M); 50 to 300 nM at FGFR3; more than 1000 nM on FGFR2.

Regarding `C[C@@H](Oc1ccc2[nH]nc(-c3cnc(N4CC(C)(NC5CCC5)C4)c(C#N)c3)c2c1)c1c(Cl)cncc1Cl` [Example 2, (R)-2-(3-(cyclobutylamino)-3-methylazetidin-1-yl)-5-(5-(1-(3,5-dichloropyridin-4-yl)ethoxy)-1H-indazol-3-yl)nicotinonitrile], the dissociation constant Kd at FGFR1 was in the range of 50 to 300 nM; on FGFR4 it was 1 to 50 nM; at FGFR3 (V555M), 1 to 50 nM; at FGFR3, 1 to 50 nM; at FGFR2 it was 50 to 300 nM.

Turning to `Cc1ncc(Cl)c([C@@H](C)Oc2ccc3[nH]nc(-c4cnc(N5CC(C)(NC(C)C)C5)c(F)c4)c3c2)c1Cl` [Example 221, 1-[5-[5-[(1R)-1-(3,5-dichloro-2-methyl-4-pyridyl)ethoxy]-1H-indazol-3-yl]-3-fluoro-2-pyridyl]-N-isopropyl-3-methyl-azetidin-3-amine], the Kd at FGFR1, on FGFR4, at FGFR3 (V555M), at FGFR3 and on FGFR2 was 1 to 50 nM in each case.

As to `CNC1(C)CN(c2ccc(-c3n[nH]c4ccc(O[C@H](C)c5c(Cl)cncc5Cl)cc34)cn2)C1` [Example 233, (R)-1-(5-(5-(1-(3,5-dichloropyridin-4-yl)ethoxy)-1H-indazol-3-yl)pyridin-2-yl)-N,3-dimethylazetidin-3-amine], the Kd at FGFR1, at FGFR4, on FGFR3 (V555M), on FGFR3 and at FGFR2 was 1 to 50 nM throughout.

Regarding `C[C@@H](Oc1cc2c(-c3cnc(N4CC5(CC5)C4)c(C#N)c3)n[nH]c2cc1F)c1c(Cl)cncc1Cl` [Example 5, (R)-5-(5-(1-(3,5-Dichloropyridin-4-yl)ethoxy)-6-fluoro-1H-indazol-3-yl)-2-(5-azaspiro[2.3]hexan-5-yl)nicotinonitrile], the Kd at FGFR1 was more than 1000 nM; at FGFR4 it was 1 to 50 nM; at FGFR3 (V555M) it was 50 to 300 nM; on FGFR3, 50 to 300 nM; on FGFR2, more than 1000 nM.

As to `C[C@@H](Oc1ccc2[nH]nc(-c3cnc(N4CC(C)(N5CCCC5)C4)c(C#N)c3)c2c1F)c1c(Cl)cncc1Cl` [Example 322, (R)-5-(5-(1-(3,5-dichloropyridin-4-yl)ethoxy)-4-fluoro-1H-indazol-3-yl)-2-(3-methyl-3-(pyrrolidin-1-yl)azetidin-1-yl)nicotinonitrile], the Kd at FGFR1 was more than 1000 nM; on FGFR4, 50 to 300 nM; on FGFR3 (V555M), 300 to 1000 nM; at FGFR3, more than 1000 nM; at FGFR2 it was more than 1000 nM.

In the case of `C[C@@H](Oc1ccc2[nH]nc(-c3cnc(N4CC(C)(NCC5CC5)C4)c(C#N)c3)c2c1F)c1c(Cl)cncc1Cl` [Example 318, (R)-2-(3-((cyclopropylmethyl)amino)-3-methylazetidin-1-yl)-5-(5-(1-(3,5-dichloropyridin-4-yl)ethoxy)-4-fluoro-1H-indazol-3-yl)nicotinonitrile], the Kd was more than 1000 nM at FGFR1; 50 to 300 nM on FGFR4; more than 1000 nM on FGFR3 (V555M); more than 1000 nM on FGFR3; more than 1000 nM at FGFR2.
